# In patent publication US7846944B2, “Pyrazolo-pyridinone compounds and methods of use thereof” (Amgen Inc., priority 2007, dated 2010):
# Assays:
# [1] = biological target: recombinant human p38α (Homo sapiens, UniProt Q16539); assay: Purified and activated recombinant human p38α HTRF kinase assay; assay type: biochemical; details: 1 nM p38α, 50 μM ATP, GST-ATF2 substrate, read-out: p38a IC50
# Procedure: Purified and Activated Recombinant Human p38α Assay
# • Kinase Reaction Buffer: Kinase reaction buffer for p38α HTRF assays consists of 50 mM Tris-pH 7.5, 5 mM MgCl2, 0.1 mg/mL BSA, 100 μM Na3VO4 and 0.5 mM DTT. • HTRF Detection Buffer: HTRF detection buffer contains 100 mM HEPES-pH 7.5, 100 mM NaCl, 0.1% BSA, 0.05% Tween-20, and 10 mM EDTA. • Serial Dilution of Compounds: Compounds were dissolved in 100% DMSO and serially diluted (3 fold, 10 point) in a polypropylene 96-well microtiter plate (drug plate). The final starting concentration of compounds in the p38α enzymatic assays was 1 μM. Columns 6 and 12 (HI controls and LO controls respectively) in the drug plate were reserved as controls and contained only DMSO. • Kinase Reaction The p38α kinase reactions were carried out in a polypropylene 96-well black round bottom assay plate in total volume of 30 μL kinase reaction buffer. Appropriate concentration of purified and activated enzyme (recombinant human) was mixed with indicated concentration of ATP and 100 nM GST-ATF2-Avitag, in the presence or absence (HI control) of Compound. See table below for actual concentrations. In the absence of substrate, the background was measured as LO control. The reaction was allowed to incubate for 1 hour at RT. • Assay Reagent Concentrations: The final reagent concentrations were 1 nM p38α and 50 μM ATP. […] After 60 minutes incubation at room temperature, the assay plate was read in a Discovery Plate Reader. The wells were excited with coherent 320 nm light and the ratio of delayed ([…] post excitation) emissions at […] (native europium fluorescence) and 665 nm (europium fluorescence transferred to allophycocyanin—an index of substrate phosphorylation) was determined (Park et al, 1999). • Data Analysis: The proportion of substrate phosphorylated in the kinase reaction in the presence of compound compared with that phosphorylated in the presence of DMSO vehicle alone (HI control) was calculated using the formula: % control (POC)=(compound−average LO)/(average HI−average LO)*100. Data (consisting of POC and inhibitor concentration in μM) was fitted to a 4-parameter equation (y=A+((B−A)/(1+((x/C)^D))), where A is the minimum y (POC) value, B is the maximum y (POC), C is the x (compound concentration) at the point of inflection and D is the slope factor, using a Levenburg-Marquardt non-linear regression algorithm.
# The inhibition constant (Ki) of the inhibitor was estimated from the IC50 (compound concentration at the point of inflection C) using the Cheng-Prussof equation: Ki=IC50/(1+S/Km), where S is the ATP substrate concentration, and Km is the Michaelis constant for ATP as determined experimentally. All results were expressed as the mean±the standard error of the mean. Data acquisition and non-linear regression algorithms were performed using Activity Base v5.2 and XL-fit software v4.1 respectively. All data was archived using Activity Base v5.2 software.
# [2] = tested on: production of IL-1β, IL-6, and TNF-α by PBMC activated with LPS; assay: Lipopolysaccharide-activated PBMC cytokine production assay; assay type: cell-based; details: LPS 100 ng/mL, 18 hours, IL-1β, IL-6, TNF-α, read-out: IC50 in the whole blood PMBC assay
# Procedure: Lipopolysaccharide-Activated PBMC Cytokine Production Assay
# Test compounds were evaluated in vitro for the ability to inhibit the production of IL-1β, IL-6, and TNF-α by PBMC activated with bacterial lipopolysaccharide (LPS). Fresh leukocytes were obtained from a local blood bank, and peripheral blood mononuclear cells (PBMCs) were isolated by density gradient centrifugation on Ficol-Paque Plus (Pharmacia).
# Preparation of Test Compound Stock Solutions
# All reagents were prepared in RPMI 1640+10% v/v human AB serum+1×Pens/Strep/Glu (assay medium). Test compounds were dissolved in 100% DMSO and serially diluted in 96-well polypropylene round bottom micro titer plates (drug plate). Serial dilutions were then diluted 1:250 into assay medium to a 4× working concentration. Compound serial dilutions were half-log, 10 point titrations with a final starting concentration of 1 μM.
# Treatment of Cells with Test Compounds and Activation with Lipopolysaccharide
# LPS was prepared to a 4× concentration in assay medium. 100 μl of PBMC (1×10^6 cells/ml) were plated in a 96-well polystyrene flat bottom micro titer tissue culture plate and incubated with 50 μl of 4× compound serial dilution for 1 hour at 37° C., 5% CO2 in a tissue culture incubator. 50 μl 4×LPS or control was added and the plates were incubated at 37° C., 5% CO2 in a tissue culture incubator for 18 hours. The final DMSO concentration was 0.1%. The total volume was 200 μL. The final LPS concentration was 100 ng/mL. After 18 hours culture supernatants were removed and IL-1β, IL-6, and TNF-α presence in the supernatants was quantified using MSD ECL based technology.
# Cytokine Measurements 20 μL of culture supernatant were added to MSD plates, and incubated for one hour at room temperature. 20 μL of detection antibody diluted in antibody diluent (1 μg/mL), and 110 μL of 2× Read Buffer P was added, and incubated for one hour at RT. Electrochemiluminescence was measured using the SECTOR HTS Imager (MSD, Gaithersburg, Md.). Data Analysis
# Compound IC50 values were calculated as follows: The proportion of cytokine production in the presence of compound compared to the cytokine production in the presence of the DMSO vehicle alone (Hi control) was calculated using the formula: Percent Control (POC)=(compound−average Lo)/(average Hi−average Lo)*100.
# [3] = tested on: TNF-α secretion by LPS-treated THP1 cells; assay: Lipopolysaccharide-activated THP1 cell TNF production assay; assay type: cell-based; details: Homo sapiens, THP-1; LPS, 3 hours, THP1 cells; read-out: IC50 in the THP-1 cellular TNF production assay
# Procedure: Lipopolysaccharide-Activated THP1 Cell TNF Production Assay
# THP1 cells were resuspended in fresh THP1 media (RPMI 1640, 10% heat-inactivated FBS, 1×PGS, 1×NEAA, plus 30 μM βME) at a concentration of 1.5×10^6 cells per mL. One hundred microliters of cells per well were plated in a polystyrene 96-well tissue culture plate. 1.5 micrograms per mL of bacterial LPS was prepared in THP1 media and transferred to the first 11 columns of a 96-well polypropylene plate. Column 12 contained only THP1 media for the LO control. Compounds were dissolved in 100% DMSO and serially diluted 3 fold in a polypropylene 96-well microtiter plate (drug plate). Columns 6 and 12 were reserved as controls (HI controls and LO controls respectively) and contained only DMSO. 10 μL of LPS followed by one microliter of inhibitor compound from the drug plate was transferred to the cell plate. The treated cells were induced to synthesize and secrete TNF-α in a 37° C. humidified incubator with 5% CO2 for 3 hours. Fifty microliters of conditioned media was transferred to a 96-well MULTI-ARRAY™ 96-well small spot plate—custom coated with MAB610 containing 100 μL of 2× Read Buffer P supplemented with 0.34 nM AF210NA polyclonal Ab labeled with ruthenium (MSD-Sulfo-TAG™-NHS ester). After an overnight incubation at room temperature with shaking, the reaction was read on the Sector Imager™ 6000. […] The amount of secreted TNF-α in the presence of AMG compounds compared with that in the presence of DMSO vehicle alone (HI control) was calculated using the formula: % control (POC)=(cpd−average LO)/(average HI−averageLO)*100. Data (consisting of POC and inhibitor concentration in μM) was fitted to a 4-parameter equation (y=A+((B−A)/(1+((x/C)^D))), where A is the minimum y (POC) value, B is the maximum y (POC), C is the x (cpd concentration) at the point of inflection and D is the slope factor) using a Levenburg-Marquardt non-linear regression algorithm.
# [4] = tested on: secreted IL-8 by whole blood activated with TNF-α; assay: Inhibition of TNF-α induced IL-8 in 50% human whole blood; assay type: cell-based; details: Homo sapiens, TNF-α (1 nM) induced IL-8, 50% human whole blood; read-out: WB TNF/IL8 IC50
# Procedure: Inhibition of TNF-α Induced IL-8 in 50% Human Whole Blood
# Test compounds were evaluated in vitro for the ability to inhibit the production of secreted IL-8 by whole blood activated with TNF-α. Fresh human whole blood was obtained from healthy, non-medicated volunteers in sodium heparin tubes.
# Compound Dilution—Assay Procedure
# 100 ul heparinized whole blood is plated into wells of 96 well flat bottom plates. 50 ul of either 4× compound or DMSO control (Final DMSO concentration is 0.1%) are added to the appropriate wells. Plates are incubated for 1 hour at 37 degrees Celsius. 50 ul of 4×TNF-α ([…], for a final concentration of 1 nM) or control (media alone) is added to the appropriate wells (Total volume=200 ul). Plates are incubated overnight (16-18 hours). 100 ul of supernatant is collected and stored in 96-well round bottom polypropylene plates at −80 degrees Celsius or assayed immediately for IL-8.
# Cytokines are measured on antibody (Ab) sandwich ECL based 96-well detection plates. 20 ul of supernatant are added to plate and plate is sealed and shaken at RT for 1 hour. 130 ul of detection Ab cocktail is added and plates are sealed and shaken for 1 hour in the dark at RT. Plates are read on MSD Sector HTS instrument. Data are analyzed and IC50 values generated using Activity Base and XI-fit programs.
# recombinant human p38α, sequence (Q16539 whole entry): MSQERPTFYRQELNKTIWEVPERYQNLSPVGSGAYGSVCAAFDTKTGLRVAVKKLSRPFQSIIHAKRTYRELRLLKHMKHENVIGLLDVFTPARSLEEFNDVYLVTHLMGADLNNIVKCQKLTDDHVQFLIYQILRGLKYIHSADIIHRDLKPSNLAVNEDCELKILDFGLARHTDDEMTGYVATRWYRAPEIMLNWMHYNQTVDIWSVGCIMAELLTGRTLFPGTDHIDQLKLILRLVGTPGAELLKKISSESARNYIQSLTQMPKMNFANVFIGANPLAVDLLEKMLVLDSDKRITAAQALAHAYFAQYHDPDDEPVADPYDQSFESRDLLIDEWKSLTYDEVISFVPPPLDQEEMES
SMILES,IC50 [1],IC50 [2],IC50 [3],IC50 [4]
"Cc1c(F)cc(C(=O)NC2CC2)cc1-c1cc2cnn(-c3c(F)cccc3F)c2n(C)c1=O [Example 2, N-cyclopropyl-3-(1-(2,6-difluorophenyl)-7-methyl-6-oxo-6,7-dihydro-1H-pyrazolo[3,4-b]pyridin-5-yl)-5-fluoro-4-methylbenzamide]",1.8 nM,≤ 125 nM,≤ 175 nM,–
"Cc1c(F)cc(C(=O)Nc2ccon2)cc1-c1cc2cnn(-c3c(F)cccc3F)c2n(C)c1=O [Example 3, 3-(1-(2,6-difluorophenyl)-7-methyl-6-oxo-6,7-dihydro-1H-pyrazolo[3,4-b]pyridin-5-yl)-5-fluoro-N-3-isoxazolyl-4-methylbenzamide]",2.4 nM,≤ 125 nM,≤ 175 nM,–
"Cc1c(F)cc(C(=O)NC2CC2)cc1-c1cc2cnn(-c3ccccc3Cl)c2n(C)c1=O [Example 8, 3-(1-(2-chlorophenyl)-7-methyl-6-oxo-6,7-dihydro-1H-pyrazolo[3,4-b]pyridin-5-yl)-N-cyclopropyl-5-fluoro-4-methylbenzamide]",2.3 nM,≤ 125 nM,≤ 175 nM,–
"Cc1ccc(C(=O)NC2CC2)cc1-c1cc2cnn(-c3ccccc3Cl)c2n(C)c1=O [Example 12, 3-(1-(2-chlorophenyl)-7-methyl-6-oxo-6,7-dihydro-1H-pyrazolo[3,4-b]pyridin-5-yl)-N-cyclopropyl-4-methylbenzamide]",1.8 nM,≤ 125 nM,≤ 175 nM,–
"Cc1ccc(C(=O)Nc2ccon2)cc1-c1cc2cnn(-c3ccc(F)cc3F)c2n(C)c1=O [Example 27, 3-(1-(2,4-difluorophenyl)-7-methyl-6-oxo-6,7-dihydro-1H-pyrazolo[3,4-b]pyridin-5-yl)-N-3-isoxazolyl-4-methylbenzamide]",2.4 nM,≤ 125 nM,≤ 175 nM,–
"Cc1c(F)cc(C(N)=O)cc1-c1cc2cnn(-c3c(F)cccc3F)c2n(C)c1=O [Example 31, 3-(1-(2,6-difluorophenyl)-7-methyl-6-oxo-6,7-dihydro-1H-pyrazolo[3,4-b]pyridin-5-yl)-5-fluoro-4-methylbenzamide]",1 nM,≤ 125 nM,≤ 175 nM,–
"Cc1ccc(C(=O)O)cc1-c1cc2cnn(-c3c(F)cccc3F)c2n(C)c1=O [Example 38, 3-(1-(2,6-difluorophenyl)-7-methyl-6-oxo-6,7-dihydro-1H-pyrazolo[3,4-b]pyridin-5-yl)-4-methylbenzoic acid]",704 nM,–,–,≥ 2500 nM
"Cc1ccc(C(=O)O)cc1-c1cc2cnn(-c3ccc(F)cc3F)c2n(C)c1=O [Example 41, 3-(1-(2,4-difluorophenyl)-7-methyl-6-oxo-6,7-dihydro-1H-pyrazolo[3,4-b]pyridin-5-yl)-4-methylbenzoic acid]",1000 nM,–,≤ 175 nM,≥ 2500 nM
"COc1ccc(C(F)(F)F)cc1NC(=O)c1ccc(C)c(-c2cc3cnn(-c4c(F)cccc4F)c3n(C)c2=O)c1 [Example 45, 3-(1-(2,6-difluorophenyl)-7-methyl-6-oxo-6,7-dihydro-1H-pyrazolo[3,4-b]pyridin-5-yl)-4-methyl-N-(2-(methyloxy)-5-(trifluoromethyl)phenyl)benzamide]",7.8 nM,–,≤ 175 nM,≥ 2500 nM
